Experimental findings from US12679878B2, “CRF2 receptor agonists and their use in therapy” (SANOFI, priority 2020, dated 2026) are described below.

This assay concerns the target T1, human CRF2α receptor (Homo sapiens, UniProt Q13324).
T1 construct: expressed in transfected cells; host or cells: TeloHEAC
T1 sequence (Q13324 1-411): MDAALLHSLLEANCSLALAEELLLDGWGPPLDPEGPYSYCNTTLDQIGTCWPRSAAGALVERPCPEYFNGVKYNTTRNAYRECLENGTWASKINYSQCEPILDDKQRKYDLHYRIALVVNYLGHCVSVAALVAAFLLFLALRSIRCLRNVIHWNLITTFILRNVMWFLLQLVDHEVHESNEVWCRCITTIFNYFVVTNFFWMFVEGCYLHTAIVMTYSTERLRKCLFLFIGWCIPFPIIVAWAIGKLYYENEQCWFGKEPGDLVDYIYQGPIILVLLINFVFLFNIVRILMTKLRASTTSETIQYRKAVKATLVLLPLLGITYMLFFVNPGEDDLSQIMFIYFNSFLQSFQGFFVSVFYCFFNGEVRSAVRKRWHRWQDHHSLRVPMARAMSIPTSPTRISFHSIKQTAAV
The assay can be described thus: cAMP agonism at human CRF2α receptor in TeloHEAC cells, FA modified peptides (Example 19.9). It counts as cell-based. Particulars: 0% HSA, relative to urocortin 2. The procedure:
Agonism of compounds for human corticotropin-releasing factor 2α (CRF2α receptor) was determined by a functional assay measuring cAMP modulation upon treatment of TeloHEAC cells stably expressing human CRF2α receptor.
Compounds were dissolved at 0.5 mM in 100% DMSO and serially diluted (1:2) in 100% DMSO for 16 dilutions. 20 nL of each dilution was then transferred to 384-well assay plate using an acoustic droplet ejection instrument. 5 μL of compound buffer (1×HBSS; 20 mM HEPES, 2 mM IBMX, 0% or 0.2% HSA) were then added to each well.
Prior to use, frozen cells were thawed quickly at 37° C. and washed (5 min at 900 rpm) with 20 mL cell buffer (1×HBSS; 20 mM HEPES). Cells were resuspended in cell buffer and adjusted to a cell density of 800.000 cells/ml.
5 μL cells (final dell density: 4000 cells/well) were dispensed in the compound-containing 384-well assay plate and incubated for 30 minutes 37° C.
The CAMP level in treated cells was determined using the Cisbio 62AM4PEC kit according to manufacturer's instruction. Finally, plates were incubated for 1 h at room temperature before measuring the fluorescence ratio between 665/620 nm.
The percent activity value (E %) was calculated by setting 100 nM of urocortin 2 (UCN2) as 100%. The in vitro potency of the compounds was quantified by determining the concentrations that caused 50% activation of maximal response (EC50) relative to urocortin 2.

SMILES strings stand for the structures. Starred links: 1 amine or outer side, 2 acyl side, 3 side chain; linkers in the order of their positions; H or OH if unused. Non-standard residues stand in square brackets, D forms with d. Residues, ends and D or L forms follow the SMILES beside them. Groups on a side chain read outwards from the residue. *: point of attachment. γGlu = O=C(O)[C@H](CCC(=O)[*:2])N[*:1]; Palmitoyl = CCCCCCCCCCCCCCCC(=O)*; AEEA = NCCOCCOCC(=O)O; Aib = CC(C)(N)C(=O)O

The term EC50 denotes the concentration that produces a half-maximal response. A higher EC50 goes with weaker potency. Compound `CCCCCCCCCCCCCCCC(=O)N[C@@H](CCC(=O)NCCOCCOCC(=O)NCCOCCOCC(=O)NCCCC[C@H](NC(=O)[C@H](CC(C)C)NC(=O)[C@H](CCCCN)NC(=O)[C@@H](NC(=O)[C@@H]1CCCN1C(=O)[C@H](NC(=O)[C@H](CC(=O)O)NC(=O)[C@H](CC(C)C)NC(=O)[C@H](CO)NC(=O)[C@H](CC(C)C)NC(=O)[C@@H](NC(=O)[C@@H](N)[C@@H](C)CC)C(C)C)C(C)C)[C@@H](C)CC)C(=O)N[C@@H](CCC(N)=O)C(=O)N[C@H](C(=O)N[C@@H](CC(C)C)C(=O)N[C@@H](CC(C)C)C(=O)N[C@@H](CCCCN)C(=O)N[C@@H](CCC(N)=O)C(=O)N[C@@H](CCC(=O)O)C(=O)N[C@@H](CCCNC(=N)N)C(=O)N[C@@H](CCC(N)=O)C(=O)N[C@@H](CCCCN)C(=O)N[C@@H](CCCCN)C(=O)NC(C)(C)C(=O)N[C@@H](CCCNC(=N)N)C(=O)N[C@@H](CCC(N)=O)C(=O)N[C@@H](CCCCN)C(=O)N[C@@H](C)C(=O)N[C@@H](CCC(=O)O)C(=O)N[C@@H](CCCCN)C(=O)N[C@@H](CC(N)=O)C(=O)N[C@@H](CCCCN)C(=O)N[C@@H](CCC(N)=O)C(=O)N[C@H](C(=O)N[C@@H](CC(C)C)C(=O)N[C@@H](C)C(=O)N[C@@H](CCC(N)=O)C(=O)N[C@H](C(N)=O)C(C)C)[C@@H](C)CC)[C@@H](C)CC)C(=O)O` [compound 210] (H-IVLSLD[dV]PIKLK([AEEA-AEEA-γGlu-Palmitoyl])QILLKQERQKK[Aib]RQKAEKNKQILAQV-NH2) had an EC50 of 2.98 nM.

`CCCCCCCCCCCCCCCC(=O)N[C@@H](CCC(=O)N[C@@H](CCC(=O)NCCOCCOCC(=O)NCCOCCOCC(=O)NCCCC[C@H](NC(=O)[C@H](CC(C)C)NC(=O)[C@H](CCCCN)NC(=O)[C@@H](NC(=O)[C@@H]1CCCN1C(=O)[C@H](NC(=O)[C@H](CC(=O)O)NC(=O)[C@H](CC(C)C)NC(=O)[C@H](CO)NC(=O)[C@H](CC(C)C)NC(=O)[C@@H](NC(=O)[C@@H](N)[C@@H](C)CC)C(C)C)C(C)C)[C@@H](C)CC)C(=O)N[C@@H](CCC(N)=O)C(=O)N[C@H](C(=O)N[C@@H](CC(C)C)C(=O)N[C@@H](CC(C)C)C(=O)N[C@@H](CCCCN)C(=O)N[C@@H](CCC(N)=O)C(=O)N[C@@H](CCC(=O)O)C(=O)N[C@@H](CCCNC(=N)N)C(=O)N[C@@H](CCC(N)=O)C(=O)N[C@@H](CCCCN)C(=O)N[C@@H](CCCCN)C(=O)NC(C)(C)C(=O)N[C@@H](CCCNC(=N)N)C(=O)N[C@@H](CCC(N)=O)C(=O)N[C@@H](CCCCN)C(=O)N[C@@H](C)C(=O)N[C@@H](CCC(=O)O)C(=O)N[C@@H](CCCCN)C(=O)N[C@@H](CC(N)=O)C(=O)N[C@@H](CCCCN)C(=O)N[C@@H](CCC(N)=O)C(=O)N[C@H](C(=O)N[C@@H](CC(C)C)C(=O)N[C@@H](C)C(=O)N[C@@H](CCC(N)=O)C(=O)N[C@H](C(N)=O)C(C)C)[C@@H](C)CC)[C@@H](C)CC)C(=O)O)C(=O)O` [compound 211] (H-IVLSLD[dV]PIKLK([AEEA-AEEA-γGlu-γGlu-Palmitoyl])QILLKQERQKK[Aib]RQKAEKNKQILAQV-NH2) yielded an EC50 of 0.94 nM. The compound `CCCCCCCCCCCCCCCC(=O)N[C@@H](CCC(=O)NCCCC[C@H](NC(=O)[C@H](CC(C)C)NC(=O)[C@H](CCCCN)NC(=O)[C@@H](NC(=O)[C@@H]1CCCN1C(=O)[C@H](NC(=O)[C@H](CC(=O)O)NC(=O)[C@H](CC(C)C)NC(=O)[C@H](CO)NC(=O)[C@H](CC(C)C)NC(=O)[C@@H](NC(=O)[C@@H](N)[C@@H](C)CC)C(C)C)C(C)C)[C@@H](C)CC)C(=O)N[C@@H](CCC(N)=O)C(=O)N[C@H](C(=O)N[C@@H](CC(C)C)C(=O)N[C@@H](CC(C)C)C(=O)N[C@@H](CCCCN)C(=O)N[C@@H](CCC(N)=O)C(=O)N[C@@H](CCC(=O)O)C(=O)N[C@@H](CCCNC(=N)N)C(=O)N[C@@H](CCC(N)=O)C(=O)N[C@@H](CCCCN)C(=O)N[C@@H](CCCCN)C(=O)N[C@@H](CCC(N)=O)C(=O)N[C@@H](CCCNC(=N)N)C(=O)N[C@@H](CCC(=O)O)C(=O)N[C@@H](CCCCN)C(=O)N[C@@H](C)C(=O)N[C@@H](CCC(=O)O)C(=O)N[C@@H](CCCCN)C(=O)N[C@@H](CC(N)=O)C(=O)N[C@@H](CCCCN)C(=O)N[C@@H](CCC(N)=O)C(=O)N[C@H](C(=O)N[C@@H](CC(C)C)C(=O)N[C@@H](C)C(=O)N[C@@H](CCC(N)=O)C(=O)N[C@H](C(N)=O)C(C)C)[C@@H](C)CC)[C@@H](C)CC)C(=O)O` [compound 213] (H-IVLSLD[dV]PIKLK([γGlu-Palmitoyl])QILLKQERQKKQREKAEKNKQILAQV-NH2) had a concentration giving a half-maximal response (EC50) of 4.48 nM. For `CCCCCCCCCCCCCCCC(=O)N[C@@H](CCC(=O)NCCCC[C@H](NC(=O)[C@H](CC(C)C)NC(=O)CNC(=O)[C@@H](NC(=O)[C@@H]1CCCN1C(=O)[C@H](NC(=O)[C@H](CC(=O)O)NC(=O)[C@H](CC(C)C)NC(=O)[C@H](CO)NC(=O)[C@H](CC(C)C)NC(=O)[C@@H](NC(=O)[C@@H](N)[C@@H](C)CC)C(C)C)C(C)C)[C@@H](C)CC)C(=O)N[C@@H](CCC(N)=O)C(=O)N[C@H](C(=O)N[C@@H](CC(C)C)C(=O)N[C@@H](CC(C)C)C(=O)N[C@@H](CCCCN)C(=O)N[C@@H](CCC(N)=O)C(=O)N[C@@H](CCC(=O)O)C(=O)N[C@@H](CCCNC(=N)N)C(=O)N[C@@H](CCC(N)=O)C(=O)N[C@@H](CCCCN)C(=O)N[C@@H](CCCCN)C(=O)NC(C)(C)C(=O)N[C@@H](CCCNC(=N)N)C(=O)N[C@@H](CCC(=O)O)C(=O)N[C@@H](CCC(N)=O)C(=O)N[C@@H](C)C(=O)N[C@@H](CCC(=O)O)C(=O)N[C@H](C(=O)N[C@@H](CC(N)=O)C(=O)N[C@@H](CCCCN)C(=O)N[C@@H](CCC(N)=O)C(=O)N[C@H](C(=O)N[C@@H](CC(C)C)C(=O)N[C@@H](C)C(=O)N[C@@H](CCC(N)=O)C(=O)N[C@H](C(N)=O)C(C)C)[C@@H](C)CC)[C@@H](C)O)[C@@H](C)CC)C(=O)O` [compound 215] (H-IVLSLD[dV]PIGLK([γGlu-Palmitoyl])QILLKQERQKK[Aib]REQAETNKQILAQV-NH2; N-terminus assumed) the value was 0.15 nM; for `CCCCCCCCCCCCCCCC(=O)N[C@@H](CCC(=O)N[C@@H](CCC(=O)NCCOCCOCC(=O)NCCOCCOCC(=O)NCCCC[C@H](NC(=O)[C@H](CC(C)C)NC(=O)CNC(=O)[C@@H](NC(=O)[C@@H]1CCCN1C(=O)[C@H](NC(=O)[C@H](CC(=O)O)NC(=O)[C@H](CC(C)C)NC(=O)[C@H](CO)NC(=O)[C@H](CC(C)C)NC(=O)[C@@H](NC(=O)[C@@H](N)[C@@H](C)CC)C(C)C)C(C)C)[C@@H](C)CC)C(=O)N[C@@H](CCC(N)=O)C(=O)N[C@H](C(=O)N[C@@H](CC(C)C)C(=O)N[C@@H](CC(C)C)C(=O)N[C@@H](CCCCN)C(=O)N[C@@H](CCC(N)=O)C(=O)N[C@@H](CCC(=O)O)C(=O)N[C@@H](CCCNC(=N)N)C(=O)N[C@@H](CCC(N)=O)C(=O)N[C@@H](CCCCN)C(=O)N[C@@H](CCCCN)C(=O)NC(C)(C)C(=O)N[C@@H](CCCNC(=N)N)C(=O)N[C@@H](CCC(=O)O)C(=O)N[C@@H](CCC(N)=O)C(=O)N[C@@H](C)C(=O)N[C@@H](CCC(=O)O)C(=O)N[C@H](C(=O)N[C@@H](CC(N)=O)C(=O)N[C@@H](CCCCN)C(=O)N[C@@H](CCC(N)=O)C(=O)N[C@H](C(=O)N[C@@H](CC(C)C)C(=O)N[C@@H](C)C(=O)N[C@@H](CCC(N)=O)C(=O)N[C@H](C(N)=O)C(C)C)[C@@H](C)CC)[C@@H](C)O)[C@@H](C)CC)C(=O)O)C(=O)O` [compound 217] (H-IVLSLD[dV]PIGLK([AEEA-AEEA-γGlu-γGlu-Palmitoyl])QILLKQERQKK[Aib]REQAETNKQILAQV-NH2; N-terminus assumed), 0.16 nM.
